The values that follow come from paper PMC5750217 (Nature Communications, 2018).

The term EC50 denotes the concentration needed to bring the measured effect to its halfway point. In general, Kd refers to the equilibrium constant for the complex coming apart. The low end stands for higher affinity, the high end for lower affinity.

Molecules are shown by their SMILES.

The target of assay [1] is T1, A2-S481T/C482T (mutant ASCT2) (Homo sapiens, UniProt Q15758, C467T/S466T).
T1 construct: expressed in transfected cells; host or cells: Xenopus laevis oocytes (cRNA injection)
T1 sequence (Q15758 1-541 S466T/C467T): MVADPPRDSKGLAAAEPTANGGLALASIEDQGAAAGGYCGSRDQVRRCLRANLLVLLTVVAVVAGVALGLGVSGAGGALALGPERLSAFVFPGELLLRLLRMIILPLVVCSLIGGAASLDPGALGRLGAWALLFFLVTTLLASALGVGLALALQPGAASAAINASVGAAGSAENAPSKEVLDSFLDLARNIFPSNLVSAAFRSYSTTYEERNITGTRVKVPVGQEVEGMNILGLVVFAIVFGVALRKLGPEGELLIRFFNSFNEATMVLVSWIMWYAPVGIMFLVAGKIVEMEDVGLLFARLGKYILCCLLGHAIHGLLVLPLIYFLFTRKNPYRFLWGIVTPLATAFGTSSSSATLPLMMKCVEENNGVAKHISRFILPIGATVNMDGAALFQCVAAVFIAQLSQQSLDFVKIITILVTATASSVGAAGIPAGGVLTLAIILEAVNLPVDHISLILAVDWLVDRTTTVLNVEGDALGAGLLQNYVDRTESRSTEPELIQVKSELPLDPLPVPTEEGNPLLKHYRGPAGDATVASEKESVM
Put plainly: Two electrode voltage clamp, substrate-activated anion current in oocytes expressing A2-S481T/C482T. Type of assay: cell-based. How it is done:
All chemicals were obtained from Sigma unless otherwise stated. Stage V oocytes were harvested from female Xenopus laevis (frogs) which were obtained from Nasco (Fort Alkinson, USA). Frogs were anaesthetised with 6.5 mM tricaine neutralised with 7.14 mM sodium bicarbonate. After making an incision in the abdomen of the frog, ovarian sacs were removed and stored in OR-2 buffer (82.5 mM NaCl, 2 mM KCl, 1 mM MgCl2, 5 mM hemisodium HEPES, pH 7.5). This surgical procedure follows a protocol (#2016/970) approved by the University of Sydney Animal Ethics Committee under the Australian Code of Practice for the Care and Use of Animals for Scientific Purposes. To isolate oocytes, the ovarian sacs were cut into small sections before being digested by agitation with 2 mg per ml Collagenase A for 1–2 h. Following digestion, defoliculated oocytes were initially rinsed with OR-2, followed by frog Ringer’s solution (96 mM NaCl, 2 mM KCl, 1 mM MgCl2, 1.8 mM CaCl2, 5 mM hemisodium HEPES, pH 7.5). A total of 20 ng of transporter cRNA was injected into oocytes which were stored in frog Ringer’s solution supplemented with 0.1% gentamycin, 50 μg per ml tetracycline, 2.5 mM pyruvate and 0.5 mM theophylline at 16–18 °C.
After 2–4 days of microinjection, current recordings were made using the two electrode voltage clamp technique with a Geneclamp 500 amplifier (Axon Instruments, Foster City, CA) interfaced with a MacLab 2e chart recorder (ADI Instruments, Sydney, Australia) using the chart software, and a Digidata 1322A (Axon Instruments) controlled by an IBM-compatible computer using the pClamp software (version 10, Molecular Devices, Union City, CA). The current–voltage relationships for substrate elicited conductances were obtained by subjecting cells to 200 ms voltage pulses between −100 mV and + 60 mV in 10 mV steps. Current–voltage relationships were calculated by subtracting steady state current measurements in the absence of substrate from corresponding current measurements in the presence of substrate. […]
Background: Two-electrode voltage clamp holds a large cell at a set potential and records current.

The target of assay [2] is T2, GltPh-R397C (Pyrococcus horikoshii, UniProt O59010, R397C).
T2 construct: hexa-His (N, cleaved yes); made in house; host or cells: Escherichia coli Top10 (pBAD)
T2 sequence (O59010 whole entry R397C): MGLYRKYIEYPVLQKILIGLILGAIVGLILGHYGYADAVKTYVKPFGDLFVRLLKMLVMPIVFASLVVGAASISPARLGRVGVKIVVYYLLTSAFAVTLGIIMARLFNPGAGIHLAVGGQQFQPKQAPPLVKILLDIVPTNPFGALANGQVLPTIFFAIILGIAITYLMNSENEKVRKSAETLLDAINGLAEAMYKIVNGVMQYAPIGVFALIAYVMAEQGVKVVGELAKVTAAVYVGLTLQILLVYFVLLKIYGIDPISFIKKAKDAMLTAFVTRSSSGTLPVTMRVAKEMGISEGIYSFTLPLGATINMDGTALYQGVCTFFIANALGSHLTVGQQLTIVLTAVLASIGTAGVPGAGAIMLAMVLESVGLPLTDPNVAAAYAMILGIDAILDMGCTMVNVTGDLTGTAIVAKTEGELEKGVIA
Put plainly: biochemical. The format is binding. The conditions noted are these: for Apparent number of Na+ ions coupled to binding (n): GltPh-R397C, global fit of isotherms at 10–100 mM Na+, 25 °C. How it is done:
Fluorescence-based binding assays were performed by titrating purified protein (50 μg per ml) in 20 mM HEPES/Tris, pH 7.4, 200 mM choline chloride, 0.4 mM n-dodecyl^−β-D-maltopyranoside, 200 nM styryl fluorescent dye RH421 (Invitrogen, Inc., Grand Island, NY) with NaCl, L-ser, L-cys or benzylcysteine at 25 °C[51]. The RH421 dye was excited at 532 nm, and the fluorescence was collected at 628 nm using a QuantaMaster (Photon International Technology, Inc., Edison, NJ). Fluorescence emissions were measured after at least 10 min equilibration to ensure a stabilised signal. The data were analysed using GraphPad Prism version 6.0 for Mac (GraphPad Software, La Jolla California USA). Fractional fluorescence changes were normalised to maximal fluorescence changes, then plotted as a function of ligand concentration and fitted to the Hill equation. All the experiments were performed at least in triplicate.
Analysis of ligand binding data. The voltage sensitive amphipathic dye RH421 reports on Na+ binding to purified GltPh protein in detergent3. RH421 was used to follow Na+ binding to GltPh‐R397C protein either alone or in reactions coupled to binding of amino acids. […]
Coupled ions and amino acid binding was probed by titrating amino acids to the GltPh‐R397C protein in the presence of 10 – 100 mM Na+ ions. The obtained isotherms were analyzed to estimate an apparent number of Na+ ions coupled to binding of the amino acids.
Raw data were first normalized by the initial fluorescence of RH421 and plotted as fraction of fluorescence change (Supplementary […]
total amount of dye and detergent in the assay buffer.
To take into account significant amino acid‐independent Na+ binding, the sets of binding isotherms obtained at variable Na+ concentrations were fitted globally to a simplified binding equation: […]
KD,a is the combined dissociation constant for coupled Na+ and ligand binding and n is the apparent number of coupled ions. Fraction of the protein bound to either Na+ ions alone or to the ions and the […]
Fraction of the protein already bound to Na+ ions before ligand addition is: […]
Fractional fluorescence change Y is fitted to an equation: […]
where Y0 and ∆Y are, respectively, baseline and the signal difference between fully bound and apo […]
KD,a and n were fitted globally for each ligand. Y0 and ∆Y were adjusted for each isotherm independently. […]
individual isotherm to a standard Hill equation, plotted the apparent dissociation constants as functions of Na+ concentrations and compared the values to those predicted using the parameters from the global fits (Supplementary Figure 8).

Where [3] appears, read: A2-S481T/C482T in oocytes, NO3−-containing buffer, current at +60 mV, dash = substrate did not generate currents.

With `N[C@@H](CO)C(=O)O` [L-serine], in assay [1] (setting [3]), a half-maximal response (EC50) required 61 ± 7 µM. In assay [2], binding was characterised by a dissociation constant (Kd) of 9 ± 1 µM and the “Apparent number of Na+ ions coupled to binding (n)” value (from here on “Apparent number of Na+ ions coupled”) was found to be 1.7 ± 0.04.

Consider `N[C@@H](CS)C(=O)O` [L-cysteine], for which, in assay [2], the affinity, expressed as Kd, was 31 ± 3 µM and the “Apparent number of Na+ ions coupled” value came out at 1.5 ± 0.04.

Regarding `N[C@@H](CCC(=O)Nc1ccc([N+](=O)[O-])cc1)C(=O)O` [GPNA, glutamyl-p-nitroanilide], the “GPNA % inhibition of L-serine activated current” value in assay [1] (A2-S481T/C482T, GPNA co-applied with EC50 of L-serine, 1 mM GPNA (Table 1 footnote)) was determined as 20 ± 3%.

Regarding `NC(=O)CC[C@H](N)C(=O)O` [L-glutamine], in assay [1] (setting [3]), the “EC50 of substrate-activated current” value is “did not generate any currents”. Further, in assay [2], binding was characterised by a dissociation constant (Kd) of 1800 ± 400 µM and the “Apparent number of Na+ ions coupled” value was 1.1 ± 0.04.
